Experimental data published in US20120101099A1, “HISTONE DEACETYLASE INHIBITORS” (ANTHEM BIOSCIENCES PRIVATE LIMITED, priority 2009, published 2012).

How the values were obtained:
[1] = target: HDAC3 (Homo sapiens, UniProt O15379); experiment: Isoform selectivity assay, recombinant HDAC isoforms
Protocol: (§1) Following the HDAC inhibition assay using Hela nuclear extract, isoform selectivity was tested using recombinant HDAC isoforms (Biomol, USA).

[2] = target: T1, HDAC2 (Homo sapiens, UniProt Q92769); experiment: biochemical
T1 construct: purchased Biomol, USA
Protocol: Assay was performed in 96-well black microplate and total volume of the assay was 100 μL. Hela nuclear extract was diluted HDAC assay buffer (final concentration of 3.0 μg/mL). Enzyme mixture was made of 10 μL of diluted enzyme and 30 μL of HDAC buffer. 40 μl of enzyme mixture followed by 10 μL of test compound (final concentration from 0.01 to 10 μM) or vehicle (control) was added to each well. The plate was pre-incubated at 37° C. for 10 minutes. The HDAC reaction was started by adding 50 μl of HDAC substrate Boc-Lys (Ac)-AMC (Anaspec, Inc Fremont, Calif., USA). The plate was incubated at 37° C. for 45 minutes. The reaction was stopped by adding 50 μL of Trypsin stop solution and plate further incubated at 37° C. for 15 minutes. Measuring the fluorescence at excitation wavelength of 360 nm and emission wavelength of 460 nm monitored the release of AMC. Buffer alone and substrate alone served as blank.

[3] = target: HDAC6 (Homo sapiens, UniProt Q9UBN7); experiment: Isoform selectivity assay, recombinant HDAC isoforms
Protocol: as §1

[4] = test system: A549 human lung xenograft; experiment: In vivo anti-cancer activity using a human tumor xenograft; design: species or system athymic nude mice (nu/nu); conditions: for % TGI on Day 21: p.o, once daily
Protocol: The study was carried out in athymic nude mice (nu/nu) of BALB-c background at age 6-8 weeks. The animals were maintained in Individually Ventilated cages in a protected and controlled environment. All animal handling and procedures were carried out in a laminar air flow hood, under anesthesia when necessary. The studies were conducted in compliance with protocols approved by Anthem Biosciences Institutional Animal Ethics Committee (IAEC).
Human cell lines derived from tumors of lung were selected for evaluation. The tumor cells cell lines were grown and expanded in RPMI 1640 (supplemented with 1.5 mM L-glutamine and 10% FBS) Subconfluent monolayers were harvested, pelleted and resuspended in RPMI 1640 medium prior to counting on a haemocytometer. Viable cells were counted using trypan blue exclusion and a cell suspension was made in cold media with a concentration of 5×10^6/ml.
[…] of the cell suspension containing 10^6 cells of greater than 90% viability was mixed with an equal volume of Matrigel (10 mg/ml) in PBS (pH7.4) and was kept at 4 deg C. Nude mice were anaesthetized and were injected subcutaneously in the flank region with 0.1 ml using a 25 gauge needle. Animals were monitored daily during the period between inoculation and palpable tumor growth. Tumor size was measured with a digital Vernier caliper and tumor-bearing mice were randomized into control and treatment groups (n=10) when sufficient tumor volume was attained (approx. 100 mm3). The following formula was used to calculate the tumor volume:
Tumor volume=(length×width2)/2.
[…] Tumor volume and was body weight was measured three times per week.

[5] = test system: recombinant HDAC isoforms; experiment: Isoform selectivity assay (overall statement); conditions: HDAC1, HDAC2, HDAC3, HDAC6, HDAC8
Protocol: as §1

[6] = target: HDAC1 (Homo sapiens, UniProt Q13547); experiment: Isoform selectivity assay, recombinant HDAC isoforms
Protocol: as §1

[7] = target: HDAC8 (Homo sapiens, UniProt Q9BY41); experiment: as above
Protocol: as §1

[8] = Oral bioavailability and pharmacokinetics studies; format: in vivo, male Balb/c mice; conditions: male Balb/c mouse
Protocol: The studies were performed to determine the oral bioavailability and pharmacokinetics of test compounds in male Balb/c mice. Study was performed after obtaining the Institutional Animal Ethics Committee (IAEC) permission. Mice aged 5 to 6 weeks weighing around 25 to 30 g were used for this study. The animals were fasted overnight with free access to water. Animals were administered test compounds by oral route at a 50 mg/kg body weight (formulation: 0.5% methylcellulose in water and 0.1% tween 80. Dose volume 10 ml/kg b.w.) or intravenous route at a dose 10 mg/kg b.w. […] (formulation: 0.9% saline. Dose volume 10 ml/kg b.w.) Blood samples were collected at various time points during the next 24 hours post dose. The blood samples were centrifuged at 3000 g for 5 minutes at 4° C. and the corresponding plasma samples were collected in clean pre-labeled tubes. Then, each sample was subjected to a suitable extraction method and analysed by LC-MS/MS (API 3200 LC-MS/MS system). Data was analyzed using WinNonlin version 5.2 (Pharsight).

Sequence of HDAC1 (Q13547 whole entry, canonical isoform): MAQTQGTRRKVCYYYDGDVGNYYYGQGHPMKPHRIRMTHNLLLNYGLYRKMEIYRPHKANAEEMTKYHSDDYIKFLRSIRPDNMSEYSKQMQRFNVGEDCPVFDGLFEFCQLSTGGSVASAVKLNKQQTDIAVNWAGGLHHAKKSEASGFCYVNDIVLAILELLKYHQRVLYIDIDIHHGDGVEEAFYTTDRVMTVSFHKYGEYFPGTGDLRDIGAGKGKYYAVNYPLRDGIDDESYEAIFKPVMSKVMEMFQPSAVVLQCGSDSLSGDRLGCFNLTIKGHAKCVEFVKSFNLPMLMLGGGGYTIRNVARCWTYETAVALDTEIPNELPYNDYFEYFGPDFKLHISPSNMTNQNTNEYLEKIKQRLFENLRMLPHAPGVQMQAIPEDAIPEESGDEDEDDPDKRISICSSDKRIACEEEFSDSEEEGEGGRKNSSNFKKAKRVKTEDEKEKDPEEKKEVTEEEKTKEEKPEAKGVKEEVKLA
Sequence of HDAC8 (Q9BY41 whole entry): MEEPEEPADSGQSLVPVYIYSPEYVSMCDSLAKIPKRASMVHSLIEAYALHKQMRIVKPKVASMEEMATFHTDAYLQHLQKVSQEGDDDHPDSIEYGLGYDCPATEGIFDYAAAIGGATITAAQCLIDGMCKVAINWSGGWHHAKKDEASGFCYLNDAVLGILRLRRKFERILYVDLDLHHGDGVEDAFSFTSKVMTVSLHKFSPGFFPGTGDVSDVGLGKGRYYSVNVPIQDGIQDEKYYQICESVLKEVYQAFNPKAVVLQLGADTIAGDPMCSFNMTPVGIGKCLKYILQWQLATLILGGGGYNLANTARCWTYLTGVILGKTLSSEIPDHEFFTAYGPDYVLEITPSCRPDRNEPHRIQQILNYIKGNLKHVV
Sequence of HDAC6 (Q9UBN7 whole entry, canonical isoform): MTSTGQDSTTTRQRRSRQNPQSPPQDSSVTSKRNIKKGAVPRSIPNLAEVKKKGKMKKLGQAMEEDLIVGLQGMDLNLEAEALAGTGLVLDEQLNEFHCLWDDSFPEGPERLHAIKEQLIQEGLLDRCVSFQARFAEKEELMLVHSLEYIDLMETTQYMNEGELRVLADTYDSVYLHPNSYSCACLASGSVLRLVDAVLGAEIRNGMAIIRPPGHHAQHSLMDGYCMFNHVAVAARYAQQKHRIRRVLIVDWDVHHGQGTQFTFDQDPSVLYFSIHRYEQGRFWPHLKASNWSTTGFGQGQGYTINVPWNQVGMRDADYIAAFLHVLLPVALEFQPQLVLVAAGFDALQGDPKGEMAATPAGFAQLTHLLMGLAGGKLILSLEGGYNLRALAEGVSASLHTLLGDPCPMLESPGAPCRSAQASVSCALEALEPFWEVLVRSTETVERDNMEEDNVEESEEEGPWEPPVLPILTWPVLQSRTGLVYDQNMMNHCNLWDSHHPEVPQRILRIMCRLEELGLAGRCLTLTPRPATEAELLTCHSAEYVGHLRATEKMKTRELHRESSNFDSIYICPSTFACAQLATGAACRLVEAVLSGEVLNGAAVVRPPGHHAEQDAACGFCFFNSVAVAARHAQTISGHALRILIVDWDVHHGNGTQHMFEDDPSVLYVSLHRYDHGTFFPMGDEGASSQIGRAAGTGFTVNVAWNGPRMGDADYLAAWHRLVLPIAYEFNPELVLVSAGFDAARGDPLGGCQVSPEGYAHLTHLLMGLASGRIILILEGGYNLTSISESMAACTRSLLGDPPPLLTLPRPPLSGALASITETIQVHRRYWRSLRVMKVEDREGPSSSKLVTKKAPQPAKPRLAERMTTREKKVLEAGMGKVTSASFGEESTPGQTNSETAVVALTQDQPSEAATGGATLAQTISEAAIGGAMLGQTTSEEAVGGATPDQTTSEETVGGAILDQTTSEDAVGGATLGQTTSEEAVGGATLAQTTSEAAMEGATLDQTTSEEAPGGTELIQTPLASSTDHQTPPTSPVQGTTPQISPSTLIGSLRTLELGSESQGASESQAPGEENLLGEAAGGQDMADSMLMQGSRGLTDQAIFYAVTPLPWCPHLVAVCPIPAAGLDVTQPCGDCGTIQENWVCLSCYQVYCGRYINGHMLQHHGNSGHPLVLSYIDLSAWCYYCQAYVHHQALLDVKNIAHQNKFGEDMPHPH
Sequence of HDAC3 (O15379 whole entry, canonical isoform): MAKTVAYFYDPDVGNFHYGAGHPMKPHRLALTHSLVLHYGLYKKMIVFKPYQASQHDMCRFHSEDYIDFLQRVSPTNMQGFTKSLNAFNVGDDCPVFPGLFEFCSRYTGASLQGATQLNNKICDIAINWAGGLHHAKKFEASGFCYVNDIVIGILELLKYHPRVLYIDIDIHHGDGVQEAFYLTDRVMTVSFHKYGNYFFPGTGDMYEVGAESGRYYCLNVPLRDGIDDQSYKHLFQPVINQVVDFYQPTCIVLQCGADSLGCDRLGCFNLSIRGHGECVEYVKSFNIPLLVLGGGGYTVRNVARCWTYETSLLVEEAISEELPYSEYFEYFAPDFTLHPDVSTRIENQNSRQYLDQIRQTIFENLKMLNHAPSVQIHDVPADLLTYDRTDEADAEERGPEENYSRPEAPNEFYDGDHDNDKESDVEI
T1 sequence (Q92769 whole entry): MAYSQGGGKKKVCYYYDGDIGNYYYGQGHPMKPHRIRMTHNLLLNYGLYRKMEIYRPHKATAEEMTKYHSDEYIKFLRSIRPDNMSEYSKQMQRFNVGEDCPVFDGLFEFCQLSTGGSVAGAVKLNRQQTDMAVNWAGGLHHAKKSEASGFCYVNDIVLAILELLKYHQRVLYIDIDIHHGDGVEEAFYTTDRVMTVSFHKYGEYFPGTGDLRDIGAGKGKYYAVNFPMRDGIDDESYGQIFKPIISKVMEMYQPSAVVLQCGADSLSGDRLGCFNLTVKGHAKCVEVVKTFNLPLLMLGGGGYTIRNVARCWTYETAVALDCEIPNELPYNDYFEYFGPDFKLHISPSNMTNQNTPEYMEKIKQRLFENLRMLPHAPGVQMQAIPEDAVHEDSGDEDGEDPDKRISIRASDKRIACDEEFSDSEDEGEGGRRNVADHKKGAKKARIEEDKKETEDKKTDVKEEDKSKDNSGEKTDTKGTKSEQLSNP

SMILES	IC50 [1] [nM]	IC50 [2] [nM]	IC50 [3] [nM]	% TGI on Day 21 ([4]; 12.5 mg/kg, listed as Ex. 8) [%]	% TGI on Day 21 ([4]; 12.5 mg/kg, listed as Ex.8) [%]	% TGI on Day 21 ([4]; 25 mg/kg, listed as Ex. 8) [%]	% TGI on Day 21 ([4]; 25 mg/kg, listed as Ex.8) [%]	% TGI on Day 21 ([4]; 50 mg/kg, listed as Ex. 8) [%]	% TGI on Day 21 ([4]; 50 mg/kg, listed as Ex.8) [%]	body weight compared to the vehicle control group ([4]; 21 days oral treatment)	isoform selectivity [5]	IC50 [6] [nM]	IC50 [7] [nM]	AUC last 0 to 24 h ([8]; oral 50 mg/kg) [ng·h/mL]	T1/2 ([8]; oral 50 mg/kg) [min]	bioavailability ([8]; plasma, oral 50 mg/kg vs intravenous) [%]	Cmax ([8]; plasma, oral 50 mg/kg) [ng/mL]	Tmax ([8]; plasma, oral 50 mg/kg) [min]	% TGI on Day 21 ([4]; 150 mg/kg) [%]
O=C(NO)c1ccc(Cn2cc(-c3ccc(CN4CCCC4)cc3)nn2)cc1 [Example 8, N-Hydroxy-4-[4-(4-pyrrolidin-1-ylmethyl-phenyl)-[1,2,3]triazol-1-ylmethyl]-benzamide]	2	29	11	27.3	27	36.9	32	52.1	57	no significant reduction in body weight	pan-HDAC inhibitor	25	282	–	–	–	–	–	–
O=C(CCCCCCC(=O)Nc1ccccc1)NO [SAHA, Suberoylanilide Hydroxamic Acid, reference compound]	–	–	–	–	–	–	–	–	–	–	–	–	–	347	48	11 ± 3	580	4.8	53.6
